Experimental findings from patent publication US11254668B2, “Pyrazolo[1,5-A]pyrazin-4-yl and related derivatives” (Pfizer Inc., priority 2017, dated 2022) are described below.

Holding throughout (assay type): biochemical
One assay addresses TYK2 (Homo sapiens (Human), UniProt P29597). The assay can be described thus: JAK Caliper Enzyme Assay at 1 mM ATP, TYK2. Put shortly: (§1)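 Read-out is Caliper LabChip mobility-shift separation of phosphorylated from unphosphorylated fluorescent peptide after EDTA termination. Each JAK kinase domain (human, recombinant) runs at 1 mM ATP at room temperature, adjusted for 20–30% turnover. Inhibition is normalized to DMSO and positive-control wells and plotted against concentration.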

The target of a further assay is JAK3 (Homo sapiens (Human), UniProt P52333). The assay can be described thus: JAK Caliper Enzyme Assay at 1 mM ATP, JAK3. In short, it runs like this: (§2)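 Recombinant human kinase domains phosphorylate a fluorescent synthetic peptide at 1 mM ATP, room temperature, with enzyme and time tuned for 20-30% conversion; EDTA-stopped. Product/substrate separated by microfluidic mobility shift; percent effect versus DMSO and positive controls fitted to IC50 (nM).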

Another assay deals with JAK1 (Homo sapiens (Human), UniProt P23458). Nature of the assay: JAK Caliper Enzyme Assay at 1 mM ATP, JAK1. In short, it runs like this: as §2
A further assay addresses JAK2 (Homo sapiens (Human), UniProt O60674). The assay can be described thus: JAK Caliper Enzyme Assay at 1 mM ATP, JAK2. In short, it runs like this: as §1

Each structure is given as a SMILES string.

Sequence of JAK3 (P52333 822-1111): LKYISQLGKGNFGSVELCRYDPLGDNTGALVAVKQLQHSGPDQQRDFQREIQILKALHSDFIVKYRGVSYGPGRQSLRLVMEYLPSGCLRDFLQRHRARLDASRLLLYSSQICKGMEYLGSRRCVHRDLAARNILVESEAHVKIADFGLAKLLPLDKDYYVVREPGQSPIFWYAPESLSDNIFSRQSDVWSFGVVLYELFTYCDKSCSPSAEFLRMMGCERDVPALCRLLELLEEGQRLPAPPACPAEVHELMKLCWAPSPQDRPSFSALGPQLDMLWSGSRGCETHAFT
Sequence of JAK1 (P23458 875-1153): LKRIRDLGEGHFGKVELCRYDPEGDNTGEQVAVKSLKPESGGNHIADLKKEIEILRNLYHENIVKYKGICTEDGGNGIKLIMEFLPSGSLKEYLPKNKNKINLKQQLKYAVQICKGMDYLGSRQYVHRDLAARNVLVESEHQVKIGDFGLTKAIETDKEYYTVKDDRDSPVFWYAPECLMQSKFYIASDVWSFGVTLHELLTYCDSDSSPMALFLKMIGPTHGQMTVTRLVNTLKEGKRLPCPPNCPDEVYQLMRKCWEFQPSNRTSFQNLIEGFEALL
Sequence of JAK2 (O60674 849-1124): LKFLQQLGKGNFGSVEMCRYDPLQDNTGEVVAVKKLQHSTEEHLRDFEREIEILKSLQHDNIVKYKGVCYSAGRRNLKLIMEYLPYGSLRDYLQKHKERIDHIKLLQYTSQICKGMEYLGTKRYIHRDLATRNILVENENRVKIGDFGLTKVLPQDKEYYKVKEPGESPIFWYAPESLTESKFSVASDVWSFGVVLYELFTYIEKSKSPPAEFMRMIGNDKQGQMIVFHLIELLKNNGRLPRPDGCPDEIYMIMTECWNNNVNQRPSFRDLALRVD
Sequence of TYK2 (P29597 897-1176): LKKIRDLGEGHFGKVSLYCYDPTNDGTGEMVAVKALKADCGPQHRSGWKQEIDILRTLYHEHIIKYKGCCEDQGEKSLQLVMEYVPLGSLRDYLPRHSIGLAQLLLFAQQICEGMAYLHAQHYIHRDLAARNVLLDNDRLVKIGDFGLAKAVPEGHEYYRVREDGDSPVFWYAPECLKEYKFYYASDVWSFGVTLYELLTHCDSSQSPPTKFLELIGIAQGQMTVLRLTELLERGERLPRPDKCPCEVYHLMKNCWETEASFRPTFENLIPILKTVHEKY

In the case of `CS(=O)(=O)N1CC(CC#N)(n2ccc(-c3nc(-c4cnn(CC5COC5)c4)cc4ncccc34)n2)C1` [Example 132, [1-(methylsulfonyl)-3-(3-{7-[1-(oxetan-3-ylmethyl)-1H-pyrazol-4-yl]-1,6-naphthyridin-5-yl}-1H-pyrazol-1-yl)azetidin-3-yl]acetonitrile], the IC50 on TYK2 is 22 nM; on JAK3, 9120 nM; on JAK1 it was 619 nM; at JAK2, 70 nM.
On to `Cn1ncc(-c2cc3ncccc3c(-c3ccn(C4(CC#N)CN(S(C)(=O)=O)C4)n3)n2)c1C(N)=O` [Example 134, 4-(5-{1-[3-(cyanomethyl)-1-(methylsulfonyl)azetidin-3-yl]-1H-pyrazol-3-yl}-1,6-naphthyridin-7-yl)-1-methyl-1H-pyrazole-5-carboxamide], for which the 50% inhibitory concentration (IC50) on TYK2 is 685 nM; at JAK3 it was over 10000 nM; on JAK1, over 10000 nM; at JAK2, over 10000 nM.
For `Cn1cc(-c2cc3ncccc3c(-c3ccn([C@]4(CC#N)C[C@@H](C#N)C4)n3)n2)c(CO)n1` [Example 135, trans-3-(cyanomethyl)-3-(3-{7-[3-(hydroxymethyl)-1-methyl-1H-pyrazol-4-yl]-1,6-naphthyridin-5-yl}-1H-pyrazol-1-yl)cyclobutanecarbonitrile], the 50% inhibitory concentration (IC50) at TYK2 is 20 nM; at JAK3 it was 2020 nM; on JAK1, 489 nM; on JAK2, 34 nM.
For `Cn1ncc(-c2cc3ncccc3c(-c3ccn([C@]4(CC#N)C[C@@H](C#N)C4)n3)n2)c1CO` [Example 136, trans-3-(cyanomethyl)-3-(3-{7-[5-(hydroxymethyl)-1-methyl-1H-pyrazol-4-yl]-1,6-naphthyridin-5-yl}-1H-pyrazol-1-yl)cyclobutanecarbonitrile], the 50% inhibitory concentration (IC50) at TYK2 was 44 nM; on JAK3, over 10000 nM; on JAK1 it was 618 nM; on JAK2, 260 nM.
As to `Cn1ncc(-c2cc3ncccc3c(-c3ccn(C4(CC#N)CN(S(C)(=O)=O)C4)n3)n2)c1N` [Example 137, [3-{3-[7-(5-amino-1-methyl-1H-pyrazol-4-yl)-1,6-naphthyridin-5-yl]-1H-pyrazol-1-yl}-1-(methylsulfonyl)azetidin-3-yl]acetonitrile], the 50% inhibitory concentration (IC50) is 52 nM at TYK2, over 10000 nM at JAK3, 586 nM at JAK1 and 207 nM at JAK2.
On to `Cn1cc(-c2cc3ncccc3c(-c3ccn(C4(CC#N)CN(S(C)(=O)=O)C4)n3)n2)c(N)n1` [Example 138, [3-{3-[7-(3-amino-1-methyl-1H-pyrazol-4-yl)-1,6-naphthyridin-5-yl]-1H-pyrazol-1-yl}-1-(methylsulfonyl)azetidin-3-yl]acetonitrile], for which the IC50 at TYK2 turned out to be 8 nM; on JAK3, 3190 nM; on JAK1, 382 nM; on JAK2 it was 21 nM.
With `Cn1cc(-c2cc3ncccc3c(-c3ccn([C@]4(CC#N)C[C@@H](C#N)C4)n3)n2)c(N)n1` [Example 139, trans-3-{3-[7-(3-amino-1-methyl-1H-pyrazol-4-yl)-1,6-naphthyridin-5-yl]-1H-pyrazol-1-yl}-3-(cyanomethyl)cyclobutanecarbonitrile], the IC50 on TYK2 came out at 10 nM; at JAK3, 3720 nM; on JAK1, 243 nM; on JAK2, 20 nM.
Regarding `Cn1cc(-c2cc3ncccc3c(-c3ccn([C@]4(CC#N)C[C@H](C#N)C4)n3)n2)c(N)n1` [Example 140, cis-3-{3-[7-(3-amino-1-methyl-1H-pyrazol-4-yl)-1,6-naphthyridin-5-yl]-1H-pyrazol-1-yl}-3-(cyanomethyl)cyclobutanecarbonitrile], the half-inhibitory concentration (IC50) worked out at 8 nM at TYK2, 474 nM on JAK3, 48 nM on JAK1 and 10 nM at JAK2.
As to `Cn1ncc(-c2cc3ncccc3c(-c3ccn(C4(CC#N)CC(C#N)C4)n3)n2)c1N` (stereo not drawn) [Example 141, trans-3-{3-[7-(5-amino-1-methyl-1H-pyrazol-4-yl)-1,6-naphthyridin-5-yl]-1H-pyrazol-1-yl}-3-(cyanomethyl)cyclobutanecarbonitrile], the IC50 on TYK2 is 49 nM; at JAK3, over 10000 nM; on JAK1, 355 nM; at JAK2, 127 nM.
As to `Cn1ncc(-c2cc3ncccc3c(-c3ccn([C@]4(CC#N)C[C@H](C#N)C4)n3)n2)c1N` [Example 142, cis-3-{3-[7-(5-amino-1-methyl-1H-pyrazol-4-yl)-1,6-naphthyridin-5-yl]-1H-pyrazol-1-yl}-3-(cyanomethyl)cyclobutanecarbonitrile], the IC50 was 19 nM at TYK2, 2160 nM on JAK3, 53 nM on JAK1 and 30 nM at JAK2.
Regarding `Cc1ccn(-c2cc3ncccc3c(-c3ccn(C4(CC#N)CN(CC(F)(F)F)C4)n3)n2)n1` [Example 143, [3-{3-[7-(3-methyl-1H-pyrazol-1-yl)-1,6-naphthyridin-5-yl]-1H-pyrazol-1-yl}-1-(2,2,2-trifluoroethyl)azetidin-3-yl]acetonitrile], the IC50 on TYK2 was 767 nM; at JAK3 it was over 10000 nM; on JAK1, over 10000 nM; at JAK2, 6670 nM.
Consider `N#CCC1(n2ccc(-c3nc(-c4cn(C5COC5)cn4)cc4ncccc34)n2)CN(CC(F)(F)F)C1` [Example 144, [3-(3-{7-[1-(oxetan-3-yl)-1H-imidazol-4-yl]-1,6-naphthyridin-5-yl}-1H-pyrazol-1-yl)-1-(2,2,2-trifluoroethyl)azetidin-3-yl]acetonitrile], for which the IC50 was 223 nM on TYK2, over 10000 nM at JAK3, over 10000 nM at JAK1 and 1370 nM at JAK2.
In the case of `CS(=O)(=O)N1CC(CC#N)(n2ccc(-c3nc(-c4cnco4)cc4ncccc34)n2)C1` [Example 145, [1-(methylsulfonyl)-3-{3-[7-(1,3-oxazol-5-yl)-1,6-naphthyridin-5-yl]-1H-pyrazol-1-yl}azetidin-3-yl]acetonitrile], the IC50 at TYK2 was 172 nM; at JAK3, over 10000 nM; at JAK1, 3290 nM; on JAK2, 1790 nM.
With `N#CC[C@]1(n2ccc(-c3nc(-c4cc(CO)no4)cc4ncccc34)n2)C[C@@H](C#N)C1` [Example 146, cis-3-(cyanomethyl)-3-(3-{7-[3-(hydroxymethyl)-1,2-oxazol-5-yl]-1,6-naphthyridin-5-yl}-1H-pyrazol-1-yl)cyclobutanecarbonitrile], the IC50 at TYK2 is 26 nM; at JAK3, over 10000 nM; at JAK1, 400 nM; at JAK2, 99 nM.
In the same order, the values of `Cc1onc(N)c1-c1cc2ncccc2c(-c2ccn(C3(CC#N)CN(S(C)(=O)=O)C3)n2)n1` [Example 147, [3-{3-[7-(3-amino-5-methyl-1,2-oxazol-4-yl)-1,6-naphthyridin-5-yl]-1H-pyrazol-1-yl}-1-(methylsulfonyl)azetidin-3-yl]acetonitrile] are 7550 nM, over 10000 nM, over 10000 nM and over 10000 nM.
Regarding `Cc1nc(-c2cc3ncccc3c(-c3ccn(C4(CC#N)CN(CC(F)(F)F)C4)n3)n2)c[nH]1` [Example 150, [3-{3-[7-(2-methyl-1H-imidazol-4-yl)-1,6-naphthyridin-5-yl]-1H-pyrazol-1-yl}-1-(2,2,2-trifluoroethyl)azetidin-3-yl]acetonitrile], the 50% inhibitory concentration (IC50) on TYK2 is 290 nM; on JAK3 it was over 10000 nM; at JAK1 it was 9830 nM; at JAK2, 3420 nM.
